The text below walks through data of paper PMC10504751, “Chalcone/1,3,4-Oxadiazole/Benzimidazole hybrids as novel anti-proliferative agents inducing apoptosis and inhibiting EGFR & BRAFV^600E” (BMC Chemistry, 2023).

Where “and” joins values, the source holds several entries; their conditions need not be identical. Equal values may be shown once.

One experiment relates to Bcl-2 in MCF-7. In words: Bcl-2 inhibition assay. To be noted: for Bcl-2 Conc: MCF-7; for Bcl-2 Fold reduction: MCF-7, vs untreated control.
In experiment [1] the test system is Cytochrome C in MCF-7 human breast cancer cell line. In words: Cytochrome C assay. It counts as cell-based. To be noted: for Cytochrome C Fold change: MCF-7, vs untreated control; for Cytochrome C Conc: MCF-7 breast cancer cells.
Experiment [2] has as its system Caspase-8 in MCF-7 breast cancer cells. In words: Caspase-8 assay. To be noted: for Caspase-8 Fold change: MCF-7, vs untreated control; for Caspase-8 Conc: MCF-7 breast cancer cells. The class given is cell-based, human.
Experiment [3] relates to melanoma LOX-IMVI cell line. In words: Propidium iodide anti-proliferative assay in LOX-IMVI. The class given is cell-based, human. To be noted: for IC50: Homo sapiens, melanoma LOX-IMVI, 48 h incubation; for fold more selective towards LOX-IMVI cell line: LOX-IMVI vs MCF-10 A. The method, then: Consequently, the half-maximal inhibitory concentration (IC50) of these compounds was determined in LOX-IMVI cell line using propidium iodide (PI)^31, 32 with Staurosporine (broad spectrum protein kinase inhibitor) as a reference.
Cells whose cell membranes are damaged or have changed permeability are counted as dead ones. […] The medium was removed; the compounds were added to the plates at 10 µM concentrations (in 0.1% DMSO) in triplicates, followed by incubation for 48 h. DMSO (0.1%) was used as control. After incubation, medium was removed followed by the addition of PI (25 µl, 50µg/mL in water/medium) to each well of the plates. At -80 °C, the plates were allowed to freeze for 24 h, followed by thawing at 25 °C. A fluorometer (Polar-Star BMG Tech) was used to record the readings at excitation and emission wavelengths of 530 and 620 nm for each well. The percentage cytotoxicity of compounds was calculated using the following formula:
Where ATC= Absorbance of treated cells and AC= Absorbance of control.

The test system of experiment [4] is Panc-1, A-549, MCF-7 and HT-29. In words: Propidium iodide anti-proliferative assay, four cell lines together. The class given is cell-based. The following applies: Homo sapiens; range over Panc-1, A-549, MCF-7, HT-29; read-out: IC50 range on the four tested cell lines. The method, then:
The propidium iodide (PI) tests^31, 32 were further used for assessment of the IC50 of all synthesized compounds and compared to Doxorubicin as a positive control against four cancer cell lines; pancreatic cancer cell line (Panc-1), epithelial line cancer cell (A-549), breast cancer cell line (MCF-7), and colon cancer cell line (HT-29).
Using the propidium iodide fluorescence assay with doxorubicin as the reference drug, IC50 of the 24 compounds 7a-x, was carried out according to a previously reported procedure^31, 32 against a panel of four human cancer cell lines; epithelial cancer cell line (A-549), breast cancer cell line (MCF-7), colon cancer cell line (HT-29) and pancreas cancer cell line (Panc-1). Compounds 7a-x were incubated with cancer cells for 2 days at different concentrations. See Appendix A.
To explore the antiproliferative potential of compounds propidium iodide fluorescence assay was performed using different cell lines (melanoma cancer cell line LOX-IMVI, pancreatic cancer cell line (Panc-1), epithelial line cancer cell (A-549), breast cancer cell line (MCF-7), and colon cancer cell line (HT-29). To calculate the total nuclear DNA, a fluorescent dye (propidium iodide, PI) is used which can attach to the DNA,^9,^10 thus offering a quick and precise technique. PI cannot pass through the cell membrane and its signal intensity can be considered as directly proportional to the quantity of cellular DNA. Cells whose cell membranes are damaged or have changed permeability are counted as dead ones. The assay was performed by seeding the cells of different cancer cell lines at a density of 3000-7500 cells/well (in 200µl medium) in culture plates followed by incubation for 24h at 37 °C in humidified 5% CO2/95% air atmospheric conditions. […] A fluorometer (Polar-Star BMG Tech) was used to record the readings at excitation and emission wavelengths of 530 and 620 nm for each well. The percentage cytotoxicity of compounds was calculated using the following formula:
Where ATC= Absorbance of treated cells and AC= Absorbance of control. […]

For experiment [5], the system named is MCF-7 cells. In words: Cell cycle analysis. It counts as cell-based, human. The following applies: MCF-7, IC50 (0.95 µM), 24 h. An excerpt: From the previous results, it was concluded that compound 7k might arrest cells at G1/S and prevent it from entering G2/M phase as indicated by decreased percentage of accumulation of cells in G2/M phase compared to control.

In experiment [6] the test system is MCF-7 cells. In words: Annexin V-FITC/PI apoptosis detection. It counts as cell-based, human. The following applies: MCF-7, IC50 (0.95 µM), 24 h. How it is done:
To further study the root for cytotoxic activity of compound 7k, Annexin V-FITC/PI assay method^40, 41 was used to investigate its capability to induce apoptosis.
Apoptosis was determined by flow cytometry based on the Annexin-V-fluoresce in isothiocyanate (FITC) and propidium iodide (PI) staining kit (BD Pharmingen, San Diego, USA) See Appendix A.
Apoptosis was determined by flow cytometry based on the Annexin-V-fluoresce in isothiocyanate (FITC) and propidium iodide (PI) staining kit (BD Pharmingen, San Diego, USA.^15^,1^6 […] Apoptotic cells were defined as Annexin-V-positive. […] Treated cells were trypsinized, washed twice with PBS and transferred into micro centrifuge tubes for centrifugation at1000 rpm for 5 min at room temperature, then resuspended in binding buffer, 5 μL of FITC and PI were added to per eppendorf tube, cells were vortexed, incubated for 15 min at room temperature in dark. Subsequently, cells were analyzed by flow cytometry (Becton Dickinson, Franklin Lakes, and USA).

Description for Bcl-2 in MCF-7: All reagents were thoroughly mixed without foaming before use. The microwells were washed twice with approximately 300 µL Wash Buffer per well with the thorough aspiration of microwell contents between washes. Care was taken not to scratch the surface of the microwells. After the last wash, the wells were emptied and microwell strips were tapped on an absorbent pad or paper towel to remove excess Wash Buffer. The microwell strips were used immediately after washing or placed upside down on a wet absorbent paper for not longer than 15 min. Wells were not allowed to dry. A total of 100 µL of Sample Diluent was added in duplicate to all standard wells and the blank wells. Standard (1:2 dilution) in duplicate was prepared ranging from 32 to 0.5 ng/mL. A total of 100 µL of Sample Diluent, in duplicate, was added to the blank wells. A total of 80 µL of Sample Diluent, in duplicate, was added to the sample wells. A total of 20 µL of each sample, in duplicate, was added to the designated wells. A total of 50 µL of diluted biotin was added, conjugated to all wells, including the blank wells. It was covered with a plate cover and incubated at room temperature on a microplate shaker at 100 rpm for 2 h. The plate cover was removed and the wells were emptied. Microwell strips were washed times as described in Step 2. A total of 100 µL of diluted Streptavidin-HRP was added to all wells, including the blank wells. It was covered with a plate cover and incubated at room temperature on a microplate shaker at 100 rpm for 1 h. The plate cover was removed and the wells were emptied. Microwell strips were washed three times, as described in Step 2. A total of 100 µL of mixed TMB Substrate Solution was pipetted into all wells, including the blanks. The microwell strips were incubated at room temperature (18 ◦C to 25 ◦C) for about 15 min, on a rotator set at 100 rpm. Direct exposure to intense light was avoided. The point at which the substrate reaction is stopped was determined by the ELISA reader. Many ELISA readers record absorbance only up to 2.0 O.D. Therefore, the color development within individual microwells was watched by the person running the assay, and the substrate reaction was stopped before positive wells were no longer properly detectable. The enzyme reaction was stopped by quickly pipetting 100 µL of Stop Solution into each well, including the blank wells. It was important that the Stop Solution was spread quickly and uniformly throughout the microwells to inactivate the enzyme completely. Results were read immediately after the Stop Solution was added or within one hour if the microwell strips were stored at 2–8 ◦C in the dark. The absorbance of each microwell was read on a spectrophotometer using 450 nm as the primary wavelength.

With `COc1ccc(/C=C/C(=O)c2ccc(NC(=O)CSc3nnc(-c4ccc5[nH]c(-c6ccc(OC)cc6)nc5c4)o3)cc2)cc1` [Compound 7m, 2-{5-[2-(4-Methoxyphenyl)-1 H-benzo[d]imidazol-5-yl]-1,3,4-oxadiazol-2-ylthio}-N-{4-[(E)-3-(4-methoxyphenyl)acryloyl]phenyl}acetamide], in the experiment with Bcl-2 in MCF-7, the “Bcl-2 Conc” value is listed as 1.050 ng/mL and the “Bcl-2 Fold reduction” value stood at 4.9 fold. Besides, in experiment [1], the “Cytochrome C Fold change” value is 11 fold and 11.00 fold; the “Cytochrome C Conc” value is 0.515 ng/mL. Besides, in experiment [2], the “Caspase-8 Fold change” value stood at 7.90 fold and the “Caspase-8 Conc” value is given as 1.350 ng/mL.
`COc1cc(-c2nc3cc(-c4nnc(SCC(=O)Nc5ccc(C(=O)/C=C/c6ccc(Cl)cc6)cc5)o4)ccc3[nH]2)cc(OC)c1OC` [Compound 7v, 2-{5-[2-(3,4,5-Trimethoxyphenyl)-1 H-benzo[d]imidazol-5-yl]-1,3,4-oxadiazol-2-ylthio}-N-{4-[(E)-3-(4-chlorophenyl)acryloyl]phenyl}acetamide]: in experiment [3], half-maximal inhibition (IC50) was put at 900 ± 100 nM and the “fold more selective towards LOX-IMVI cell line” value was found to be 97 fold.
For the compound `COc1ccc(-c2nc3cc(-c4nnc(SCC(=O)Nc5ccc(C(=O)/C=C/c6ccccc6)cc5)o4)ccc3[nH]2)cc1` [Compound 7k, 2-{5-[2-(4-Methoxyphenyl)-1 H-benzo[d]imidazol-5-yl]-1,3,4-oxadiazol-2-ylthio}-N-{4-[(E)-3-phenylacryloyl]phenyl}acetamide], in the experiment with Bcl-2 in MCF-7, the “Bcl-2 Conc” value is 0.94 ng/mL and 0.940 ng/mL; the “Bcl-2 Fold reduction” value worked out at 5.4 fold. Besides, in experiment [1], the “Cytochrome C Fold change” value was 14 fold and 14.00 fold; the “Cytochrome C Conc” value is on record as 0.660 ng/mL. In addition, in experiment [4], the IC50 was in the range of 950 to 1400 nM. Besides, the “percentage of cells in G2/M phase” value in the experiment on MCF-7 cells [5] (control 12.22%) is reported as 3.19%. Further, the “percentage of cells in S phase” value with MCF-7 cells [5] (control 29.51%) stood at 34.86%. Also, in the experiment on MCF-7 cells [5] (control 58.27%), the “percentage of cells in G0-G1 phase” value is on record as 61.95%. Moreover, in experiment [2], the “Caspase-8 Fold change” value was 10 fold and 9.90 fold; the “Caspase-8 Conc” value stood at 1.680 ng/mL. In the experiment on MCF-7 cells [6], this compound yielded an early apoptosis of 28.71%, a late apoptosis of 12.63% and a necrosis of 3.05%.
With `O=C(CSc1nnc(-c2ccc3[nH]c(-c4ccc(Cl)cc4)nc3c2)o1)Nc1ccc(C(=O)/C=C/c2ccc(Cl)cc2)cc1` [Compound 7g, 2-{5-[2-(4-Chlorophenyl)-1 H-benzo[d]imidazol-5-yl]-1,3,4-oxadiazol-2-ylthio}-N-{4-[(E)-3-(4-chlorophenyl)acryloyl]phenyl}acetamide], the IC50 in experiment [3] was 1050 ± 100 nM.
As for `COc1ccc(-c2nc3cc(-c4nnc(SCC(=O)Nc5ccc(C(=O)/C=C/c6ccc(Cl)cc6)cc5)o4)ccc3[nH]2)cc1` [Compound 7l, 2-{5-[2-(4-Methoxyphenyl)-1 H-benzo[d]imidazol-5-yl]-1,3,4-oxadiazol-2-ylthio}-N-{4-[(E)-3-(4-chlorophenyl)acryloyl]phenyl}acetamide], in experiment [3], half-maximal inhibition (IC50) required 800 ± 100 nM and the “fold more selective towards LOX-IMVI cell line” value was 111 fold. For the same compound, in the experiment with Bcl-2 in MCF-7, the “Bcl-2 Conc” value is 0.97 ng/mL and 0.975 ng/mL; the “Bcl-2 Fold reduction” value is listed as 5.2 fold. In addition, in experiment [1], the “Cytochrome C Fold change” value was 13 fold and 13.00 fold; the “Cytochrome C Conc” value turned out to be 0.595 ng/mL. The IC50 in experiment [4] lay within 1100 to 1650 nM. For the same compound, in experiment [2], the “Caspase-8 Fold change” value was 9 fold and 9.30 fold; the “Caspase-8 Conc” value is on record as 1.570 ng/mL.
With `COc1ccc(-c2nc3cc(-c4nnc(SCC(=O)Nc5ccc(C(=O)/C=C/c6ccccc6)cc5)o4)ccc3[nH]2)cc1OC` [Compound 7p, 2-{5-[2-(3,4-Dimethoxyphenyl)-1 H-benzo[d]imidazol-5-yl]-1,3,4-oxadiazol-2-ylthio}-N-{4-[(E)-3-phenylacryloyl]phenyl}acetamide], the half-maximal inhibitory concentration (IC50) in experiment [3] was 1200 ± 100 nM.
In turn, `COc1ccc(-c2nc3cc(-c4nnc(SCC(=O)Nc5ccc(C(=O)/C=C/c6ccc(Cl)cc6)cc5)o4)ccc3[nH]2)cc1OC` [Compound 7q, 2-{5-[2-(3,4-Dimethoxyphenyl)-1 H-benzo[d]imidazol-5-yl]-1,3,4-oxadiazol-2-ylthio}-N-{4-[(E)-3-(4-chlorophenyl)acryloyl]phenyl}acetamide] came in with an IC50 in experiment [3] of 2500 ± 200 nM.
